Here are results for 7 compounds from US20260226494A1 (HANGZHOU RUIFENG BIOSCIENCE CO., LTD., priority 2023, published 2026).

In data set [1] the test system is non-transgenic soybean variety Wandou 28. Kind of data set: Field herbicide tolerance test, single herbicides (Example 7). An excerpt: (§1) A randomized block design was adopted with a total of 24 plots, each measuring 4 m×5 m. […] A 1 m interval was set between adjacent plots, with three replicates for each soybean type. At the V3 growth stage, the following treatments were applied: 1) no herbicide application; 2) respective applications of glyphosate at 1800 g a.i./ha, MCPA at 1848 g a.i./ha, mesotrione at 123.75 g a.i./ha, penoxsulam at 45 g a.i./ha, nicosulfuron at 102 g a.i./ha, pyrazosulfuron-ethyl at 56.25 g a.i./ha, and flazasulfuron at 112.5 g a.i./ha. Seedling emergence rate, plant height (measured from the tallest 10 plants), and herbicide damage symptoms (evaluated from the 10 plants with the mildest symptoms) were investigated at 1, 2, and 4 weeks post-application. Herbicide damage symptom grading was performed according to GB/f 17980.42-2000. The formula for calculating herbicide damage rate was as follows:
(§2) [formula] • (×-herbicide damage rate in percentage; N-number of plants with the same level of herbicide damage; S-herbicide damage level; T-total number of plants evaluated; M-highest level)∘

In data set [2] the test system is transgenic soybean event XP-2. The description is as above. Particulars: for tolerance level of transgenic soybean event XP-2 to herbicides (in words): field test, Table 10 doses.
Source text: as §1, §2

Data set [3] relates to T0 transgenic soybean plants. Kind of data set: Greenhouse glyphosate spray screen of T0 transgenic events. Type of data set: in vivo, Glycine max. Particulars: 1800 g a.i./ha sprayed at V4 stage; 546 T0 events. An excerpt:
After hardening, 685 T0 generation transgenic events obtained from Example 1 were transplanted into natural soil in a greenhouse. Among them, 546 seedlings successfully survived in the greenhouse. When the T0 transgenic soybean plants reached the V4 vegetative stage, 1800 g a.i/ha ofglyphosate was sprayed.

The subject of data set [4] is T1 generation of five transformation events (XP-2, XP-195, XP-325, XP-326, XP-552). Set-up: species or system Glycine max. Conditions: in vivo. An excerpt:
At the V4 stage, 225 g a.i./ha of flazasulfuron was sprayed, and the tolerance of each transformant was observed.

For data set [5], the system named is T1 generation soybean transgenic events. Conditions: in vivo.
Data set [6] shares this test system. Kind of data set: Flazasulfuron tolerance test on progeny of 54 single-copy events. Also on record: dose or concentration left out as unconfirmed. Particulars: […] g a.i./ha.
Where [7] appears, read: Wandou 28, 1 week after spraying at V3, doses as Table 10 c1.
[8] abbreviates: Wandou 28, 2 weeks after spraying at V3, doses as Table 10 c1.
Where [9] appears, read: Wandou 28, 4 weeks after spraying at V3, doses as Table 10 c1.
[10] abbreviates: XP-2, 2 weeks after spraying at V3, doses as Table 10 c1.
[11] abbreviates: XP-2, 4 weeks after spraying at V3, doses as Table 10 c1.

As for `Cc1cc(Cl)ccc1OCC(=O)O` [MCPA], in data set [1] (setting [7]), the “damage rate(%) After 1 week” value is recorded as 100%. Also, the “damage rate(%) After 2 weeks” value in data set [1] (setting [8]) is listed as 100%. Also, the “damage rate(%) After 4 weeks” value in data set [1] (setting [9]) is given as 100%. In data set [2] (setting [10]), the “Height(cm) After 2 weeks” value is 14.7 ± 0.32 cm and the “damage rate(%) After 2 weeks” value was found to be 0%. In addition, in data set [2] (setting [11]), the “Height(cm) After 4 weeks” value worked out at 21.6 ± 0.52 cm and the “damage rate(%) After 4 weeks” value is reported as 0%. Moreover, in data set [2], the “tolerance level of transgenic soybean event XP-2 to herbicides (in words)” value (“tolerance level” for short) was “high tolerance”.
For the compound `CS(=O)(=O)c1ccc(C(=O)C2C(=O)CCCC2=O)c([N+](=O)[O-])c1` [Mesotrione, mesotrione], the “damage rate(%) After 1 week” value in data set [1] (setting [7]) is 100%. Moreover, the “damage rate(%) After 2 weeks” value is on record as 100% in data set [1] (setting [8]) and 0% in data set [2] (setting [10]). In addition, the entries for the “damage rate(%) After 4 weeks” value in data set [1] (setting [9]) and in data set [2] (setting [11]) were 100% and 0%, respectively. Moreover, the “Height(cm) After 2 weeks” value in data set [2] (setting [10]) was 14.59 ± 0.24 cm. Also, the “Height(cm) After 4 weeks” value in data set [2] (setting [11]) is given as 21.63 ± 0.52 cm. Besides, the “tolerance level” value in data set [2] was “high tolerance”.
As to `CCOC(=O)c1cnn(C)c1S(=O)(=O)NC(=O)Nc1nc(OC)cc(OC)n1` [Pyrazosulfuron-ethyl, pyrazosulfuron-ethyl], the “damage rate(%) After 1 week” value in data set [1] (setting [7]) was 100%. The “damage rate(%) After 2 weeks” value in data set [1] (setting [8]) worked out at 100%. Further, in data set [1] (setting [9]), the “damage rate(%) After 4 weeks” value was determined as 100%. In data set [2] (setting [10]), the “Height(cm) After 2 weeks” value was found to be 14.6 ± 0.24 cm and the “damage rate(%) After 2 weeks” value is listed as 0%. Moreover, in data set [2] (setting [11]), the “Height(cm) After 4 weeks” value worked out at 21.63 ± 0.52 cm and the “damage rate(%) After 4 weeks” value came to 0%. Moreover, the “tolerance level” value in data set [2] is “high tolerance”.
As to `O=C(O)CNCP(=O)(O)O` [Glyphosate, glyphosate], the “damage rate(%) After 1 week” value in data set [1] (setting [7]) amounted to 100%. The “damage rate(%) After 2 weeks” value in data set [1] (setting [8]) stood at 100%. Further, in data set [1] (setting [9]), the “damage rate(%) After 4 weeks” value came out at 100%. Besides, in data set [2] (setting [10]), the “Height(cm) After 2 weeks” value was 14.58 ± 0.24 cm and the “damage rate(%) After 2 weeks” value amounted to 0%. Further, in data set [2] (setting [11]), the “Height(cm) After 4 weeks” value came out at 21.6 ± 0.52 cm and the “damage rate(%) After 4 weeks” value worked out at 0%. Moreover, in data set [2], the “tolerance level” value was “high tolerance”. Moreover, in data set [3], the “Number of Events: Growth stunted, dwarfed plants (phytotoxicity)” value turned out to be 327; the “Number of Events: Plant death” value came to 132; the “Number of Events: no phytotoxicity” value was determined as 87.
Consider `COc1cc(OC)nc(NC(=O)NS(=O)(=O)c2ncccc2C(F)(F)F)n1` [Flazasulfuron, flazasulfuron], for which, in data set [1] (in vivo), the Seedling rate % amounted to 0%, the “damage rate(%) After 1 week” value was 100%, the “damage rate(%) After 2 weeks” value is 100% and the “damage rate(%) After 4 weeks” value is given as 100%. Besides, in data set [2] (in vivo), the “Height(cm) After 1 week” value is on record as 12.49 ± 0.35 cm, the “Height(cm) After 2 weeks” value is 14.74 ± 0.2 cm, the “Height(cm) After 4 weeks” value stood at 21.69 ± 0.32 cm and the Seedling rate % is 100%. Further, in data set [2] (in vivo), the “damage rate(%) After 1 week” value turned out to be 0%, the “damage rate(%) After 2 weeks” value is 0% and the “damage rate(%) After 4 weeks” value is 0%. In data set [4], the “tolerance of each transformant (in words)” value is “XP-2 exhibited the highest tolerance”. In data set [5], the “Number of Events: No phytotoxicity” value worked out at 5 and the “Number of Events: having phytotoxicity, New leaves getting yellow” value came to 49. For the same compound, the “Number of Events: Plant death” value in data set [6] amounted to 0.
As to `COc1cc(OC)nc(NC(=O)NS(=O)(=O)c2ncccc2C(=O)N(C)C)n1` [Nicosulfuron, nicosulfuron], in data set [1] (setting [7]), the “damage rate(%) After 1 week” value came out at 100%. In addition, the “damage rate(%) After 2 weeks” value in data set [1] (setting [8]) was 100%. In data set [1] (setting [9]), the “damage rate(%) After 4 weeks” value is reported as 100%. Moreover, in data set [2] (setting [10]), the “Height(cm) After 2 weeks” value is 14.73 ± 0.24 cm and the “damage rate(%) After 2 weeks” value is on record as 0%. Besides, in data set [2] (setting [11]), the “Height(cm) After 4 weeks” value turned out to be 21.66 ± 0.53 cm and the “damage rate(%) After 4 weeks” value amounted to 0%. In addition, in data set [2], the “tolerance level” value is reported as “high tolerance”.
Consider `COc1cnc(OC)n2nc(NS(=O)(=O)c3c(OCC(F)F)cccc3C(F)(F)F)nc12` [Penoxsulam, penoxsulam], for which, in data set [1] (in vivo), the Seedling rate % is reported as 0%, the “damage rate(%) After 1 week” value stood at 100%, the “damage rate(%) After 2 weeks” value is recorded as 100% and the “damage rate(%) After 4 weeks” value is listed as 100%. For the same compound, in data set [2] (in vivo), the “Height(cm) After 1 week” value turned out to be 12.75 ± 1.01 cm, the “Height(cm) After 2 weeks” value is 14.6 ± 0.24 cm, the “Height(cm) After 4 weeks” value amounted to 21.61 ± 0.52 cm and the Seedling rate % is on record as 100%. Moreover, in data set [2] (in vivo), the “damage rate(%) After 1 week” value is reported as 0%, the “damage rate(%) After 2 weeks” value is 0% and the “damage rate(%) After 4 weeks” value is 0%.
